Data taken from patent publication US20250353864A1, “INDAZOLE CONTAINING MACROCYCLES AND THEIR USE” (BLOSSOMHILL THERAPEUTICS, INC., priority 2022, published 2025).
pIC50: −log10 of the molar value.

Experiments:
Format in all cases: biochemical
EGFR L858R mutant = EGFR L858R mutant (Homo sapiens (Human), UniProt P00533, L858R); assay: HotSpot radiometric kinase assay, EGFR L858R mutant; details: 10 μM ATP
How it was run: (§1)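 10 μM ATP (33P-labelled, final); 120 min RT; P81 filter capture, 0.75% phosphoric acid washes. Cpd preincubated ~20 min with enzyme/substrate, 20 mM Hepes pH 7.5, 10 mM MgCl2, 1% DMSO. IC50 by curve fit.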

CLK4 = CLK4 (Homo sapiens (Human), UniProt Q9HAZ1); assay: Inhibition of CLK4 kinase activity evaluated at Nanosyn (ADP-Glo); details: ADP-Glo luminescence
CLK4, sequence (Q9HAZ1 whole entry): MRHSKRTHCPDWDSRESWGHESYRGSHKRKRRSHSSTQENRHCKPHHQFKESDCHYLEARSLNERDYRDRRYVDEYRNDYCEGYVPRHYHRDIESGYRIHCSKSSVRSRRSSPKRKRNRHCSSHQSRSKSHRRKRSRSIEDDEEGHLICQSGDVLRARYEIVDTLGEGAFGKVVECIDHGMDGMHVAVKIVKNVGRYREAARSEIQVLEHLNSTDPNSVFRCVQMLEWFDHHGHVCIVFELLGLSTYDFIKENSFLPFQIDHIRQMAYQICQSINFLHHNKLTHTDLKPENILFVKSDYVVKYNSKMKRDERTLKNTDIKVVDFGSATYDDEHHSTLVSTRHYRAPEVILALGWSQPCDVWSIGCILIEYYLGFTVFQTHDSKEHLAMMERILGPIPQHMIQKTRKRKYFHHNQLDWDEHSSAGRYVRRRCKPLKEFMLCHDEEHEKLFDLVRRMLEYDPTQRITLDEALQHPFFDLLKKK
How it was run: (§2)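 Enzyme + substrate in HEPES pH 7.5/MgCl2/DTT buffer; compound dispensed acoustically, 1% DMSO. ATP start, assay-specific incubation time. ADP-Glo reagent 40 min, detection reagent 10 min, luminescence. %inh vs DMSO (0%) and no-enzyme (100%) controls.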

CLK3 = CLK3 (Homo sapiens (Human), UniProt P49761); assay: Inhibition of CLK3 kinase activity evaluated at Nanosyn (ADP-Glo); details: ADP-Glo luminescence
CLK3, sequence (P49761 whole entry): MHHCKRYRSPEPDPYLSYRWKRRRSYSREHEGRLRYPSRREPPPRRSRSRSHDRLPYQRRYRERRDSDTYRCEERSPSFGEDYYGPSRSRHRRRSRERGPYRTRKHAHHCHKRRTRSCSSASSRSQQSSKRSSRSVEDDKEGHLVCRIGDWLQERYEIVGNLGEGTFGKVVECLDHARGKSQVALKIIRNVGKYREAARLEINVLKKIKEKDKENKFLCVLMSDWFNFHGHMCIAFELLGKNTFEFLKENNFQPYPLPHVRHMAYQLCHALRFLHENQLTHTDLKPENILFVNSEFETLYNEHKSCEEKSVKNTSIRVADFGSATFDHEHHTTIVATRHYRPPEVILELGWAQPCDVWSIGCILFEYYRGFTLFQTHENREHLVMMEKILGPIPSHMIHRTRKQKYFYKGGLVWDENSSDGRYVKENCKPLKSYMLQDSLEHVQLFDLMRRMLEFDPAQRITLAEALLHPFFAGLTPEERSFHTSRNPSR
How it was run: as §2

EGFR Δ746-750 mutant = EGFR Δ746-750 mutant (Homo sapiens (Human), UniProt P00533, DEL746-750); assay: HotSpot radiometric kinase assay, EGFR Δ746-750 mutant; details: 10 μM ATP
EGFR Δ746-750 mutant, sequence (P00533 other isoform, or with tags, fused parts or gaps del 1-668/del 746-750 limits assumed): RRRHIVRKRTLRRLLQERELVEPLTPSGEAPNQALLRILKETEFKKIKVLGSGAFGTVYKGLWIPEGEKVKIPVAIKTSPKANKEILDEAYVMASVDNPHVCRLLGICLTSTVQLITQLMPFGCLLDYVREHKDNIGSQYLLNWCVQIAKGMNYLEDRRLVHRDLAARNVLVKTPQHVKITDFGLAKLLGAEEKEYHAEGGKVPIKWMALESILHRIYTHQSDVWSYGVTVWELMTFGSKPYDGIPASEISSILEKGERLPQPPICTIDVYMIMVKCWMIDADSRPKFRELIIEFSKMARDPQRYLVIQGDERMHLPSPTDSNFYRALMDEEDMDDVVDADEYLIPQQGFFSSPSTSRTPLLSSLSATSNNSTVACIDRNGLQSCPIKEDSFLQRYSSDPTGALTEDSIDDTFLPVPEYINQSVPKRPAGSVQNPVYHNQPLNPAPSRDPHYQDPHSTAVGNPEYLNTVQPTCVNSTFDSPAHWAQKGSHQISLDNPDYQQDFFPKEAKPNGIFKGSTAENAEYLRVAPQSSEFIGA
How it was run: as §1

[1] = target: EGFR Δ746-750/C797S mutant (Homo sapiens (Human), UniProt P00533, C797S/DEL746-750); assay: HotSpot radiometric kinase assay, EGFR Δ746-750/C797S mutant; details: 10 μM ATP
How it was run: as §1

EGFR WT = EGFR WT (Homo sapiens (Human), UniProt P00533); assay: HotSpot radiometric kinase assay (Reaction Biology), EGFR WT; details: 10 μM ATP
EGFR WT, sequence (P00533 25-1210): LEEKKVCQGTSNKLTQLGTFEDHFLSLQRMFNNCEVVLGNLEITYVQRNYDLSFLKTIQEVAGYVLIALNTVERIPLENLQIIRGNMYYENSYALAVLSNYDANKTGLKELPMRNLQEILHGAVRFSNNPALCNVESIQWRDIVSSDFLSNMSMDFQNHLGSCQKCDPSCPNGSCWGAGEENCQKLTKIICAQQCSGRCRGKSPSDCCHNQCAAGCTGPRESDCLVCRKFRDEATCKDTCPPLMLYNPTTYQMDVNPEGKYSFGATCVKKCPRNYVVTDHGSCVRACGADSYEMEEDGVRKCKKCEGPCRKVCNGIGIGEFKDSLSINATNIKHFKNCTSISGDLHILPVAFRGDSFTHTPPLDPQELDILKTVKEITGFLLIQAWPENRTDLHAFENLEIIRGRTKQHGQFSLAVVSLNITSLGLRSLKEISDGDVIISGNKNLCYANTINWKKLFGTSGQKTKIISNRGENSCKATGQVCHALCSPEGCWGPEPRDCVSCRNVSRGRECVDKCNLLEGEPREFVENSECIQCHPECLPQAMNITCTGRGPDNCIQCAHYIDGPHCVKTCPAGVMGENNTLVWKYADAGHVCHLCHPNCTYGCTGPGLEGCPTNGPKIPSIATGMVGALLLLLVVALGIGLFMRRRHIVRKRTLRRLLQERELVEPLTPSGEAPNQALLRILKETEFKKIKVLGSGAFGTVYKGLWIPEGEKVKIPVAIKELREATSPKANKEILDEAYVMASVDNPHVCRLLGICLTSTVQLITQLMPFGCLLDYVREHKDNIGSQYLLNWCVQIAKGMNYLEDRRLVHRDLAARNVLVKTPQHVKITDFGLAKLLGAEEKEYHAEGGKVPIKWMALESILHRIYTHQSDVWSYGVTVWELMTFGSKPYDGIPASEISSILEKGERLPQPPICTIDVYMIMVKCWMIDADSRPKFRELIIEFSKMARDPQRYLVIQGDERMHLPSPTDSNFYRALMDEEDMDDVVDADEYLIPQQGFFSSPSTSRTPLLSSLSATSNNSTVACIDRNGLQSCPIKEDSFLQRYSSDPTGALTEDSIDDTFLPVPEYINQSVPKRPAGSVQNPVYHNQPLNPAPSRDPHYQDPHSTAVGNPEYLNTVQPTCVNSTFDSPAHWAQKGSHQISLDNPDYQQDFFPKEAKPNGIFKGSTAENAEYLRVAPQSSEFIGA
How it was run: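 Compounds were preincubated ~20 min with kinase/substrate in pH 7.5 Hepes buffer (MgCl2, EGTA, Brij35, BSA, Na3VO4, DTT, 1% DMSO), then ATP plus 33P-ATP was added to 10 μM final. After 120 min at room temperature, reactions were spotted on P81 filters and washed; IC50 values came from curve fits.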

[2] = target: EGFR L858R/T790M/C797S mutant (Homo sapiens (Human), UniProt P00533, C797S/L858R/T790M); assay: HotSpot radiometric kinase assay, EGFR L858R/T790M/C797S mutant; details: 10 μM ATP
How it was run: as §1

EGFR (D770_N771insNPG) = EGFR (D770_N771insNPG) (Homo sapiens (Human), UniProt P00533, INS770NPG); assay: HotSpot radiometric kinase assay, EGFR (D770_N771insNPG); details: 10 μM ATP, read-out: EGFR (Δ770_N771insNPG) IC50
How it was run: as §1

CLK2 = CLK2 (Homo sapiens (Human), UniProt P49760); assay: Inhibition of CLK2 kinase activity evaluated at Nanosyn (ADP-Glo); details: ADP-Glo luminescence
CLK2, sequence (P49760 whole entry): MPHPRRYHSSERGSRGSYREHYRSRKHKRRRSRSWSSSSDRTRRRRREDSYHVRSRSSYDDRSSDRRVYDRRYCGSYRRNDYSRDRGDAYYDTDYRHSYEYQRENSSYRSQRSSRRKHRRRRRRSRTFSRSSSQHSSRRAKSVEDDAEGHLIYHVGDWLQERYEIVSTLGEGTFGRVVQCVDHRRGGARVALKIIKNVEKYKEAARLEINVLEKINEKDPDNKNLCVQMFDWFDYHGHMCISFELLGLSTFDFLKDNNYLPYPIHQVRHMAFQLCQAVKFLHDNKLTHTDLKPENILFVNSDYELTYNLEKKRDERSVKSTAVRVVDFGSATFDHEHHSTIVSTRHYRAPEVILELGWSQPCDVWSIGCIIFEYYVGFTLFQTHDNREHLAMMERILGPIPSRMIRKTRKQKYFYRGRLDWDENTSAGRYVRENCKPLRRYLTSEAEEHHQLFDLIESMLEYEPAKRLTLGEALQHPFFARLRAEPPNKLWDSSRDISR
How it was run: as §2

EGFR L858R/T790M mutant = EGFR L858R/T790M mutant (Homo sapiens (Human), UniProt P00533, L858R/T790M); assay: HotSpot radiometric kinase assay, EGFR L858R/T790M mutant; details: 10 μM ATP
How it was run: as §1

CLK1 = CLK1 (Homo sapiens (Human), UniProt P49759); assay: Inhibition of CLK1 kinase activity evaluated at Nanosyn (ADP-Glo); details: ADP-Glo luminescence
CLK1, sequence (P49759 whole entry): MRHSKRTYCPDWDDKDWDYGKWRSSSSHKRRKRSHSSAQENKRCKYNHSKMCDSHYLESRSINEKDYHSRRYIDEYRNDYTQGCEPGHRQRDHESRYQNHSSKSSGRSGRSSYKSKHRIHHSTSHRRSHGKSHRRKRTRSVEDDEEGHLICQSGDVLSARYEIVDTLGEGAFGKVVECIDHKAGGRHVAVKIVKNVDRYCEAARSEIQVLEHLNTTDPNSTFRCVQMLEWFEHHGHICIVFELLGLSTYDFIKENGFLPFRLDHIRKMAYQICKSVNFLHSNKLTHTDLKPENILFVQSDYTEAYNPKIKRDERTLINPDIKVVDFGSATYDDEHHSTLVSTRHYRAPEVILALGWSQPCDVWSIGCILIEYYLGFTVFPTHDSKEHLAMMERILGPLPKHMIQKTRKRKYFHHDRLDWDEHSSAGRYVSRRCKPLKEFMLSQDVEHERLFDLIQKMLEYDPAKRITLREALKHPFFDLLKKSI
How it was run: as §2

EGFR L858R mutant, sequence (P00533 25-1210 L858R): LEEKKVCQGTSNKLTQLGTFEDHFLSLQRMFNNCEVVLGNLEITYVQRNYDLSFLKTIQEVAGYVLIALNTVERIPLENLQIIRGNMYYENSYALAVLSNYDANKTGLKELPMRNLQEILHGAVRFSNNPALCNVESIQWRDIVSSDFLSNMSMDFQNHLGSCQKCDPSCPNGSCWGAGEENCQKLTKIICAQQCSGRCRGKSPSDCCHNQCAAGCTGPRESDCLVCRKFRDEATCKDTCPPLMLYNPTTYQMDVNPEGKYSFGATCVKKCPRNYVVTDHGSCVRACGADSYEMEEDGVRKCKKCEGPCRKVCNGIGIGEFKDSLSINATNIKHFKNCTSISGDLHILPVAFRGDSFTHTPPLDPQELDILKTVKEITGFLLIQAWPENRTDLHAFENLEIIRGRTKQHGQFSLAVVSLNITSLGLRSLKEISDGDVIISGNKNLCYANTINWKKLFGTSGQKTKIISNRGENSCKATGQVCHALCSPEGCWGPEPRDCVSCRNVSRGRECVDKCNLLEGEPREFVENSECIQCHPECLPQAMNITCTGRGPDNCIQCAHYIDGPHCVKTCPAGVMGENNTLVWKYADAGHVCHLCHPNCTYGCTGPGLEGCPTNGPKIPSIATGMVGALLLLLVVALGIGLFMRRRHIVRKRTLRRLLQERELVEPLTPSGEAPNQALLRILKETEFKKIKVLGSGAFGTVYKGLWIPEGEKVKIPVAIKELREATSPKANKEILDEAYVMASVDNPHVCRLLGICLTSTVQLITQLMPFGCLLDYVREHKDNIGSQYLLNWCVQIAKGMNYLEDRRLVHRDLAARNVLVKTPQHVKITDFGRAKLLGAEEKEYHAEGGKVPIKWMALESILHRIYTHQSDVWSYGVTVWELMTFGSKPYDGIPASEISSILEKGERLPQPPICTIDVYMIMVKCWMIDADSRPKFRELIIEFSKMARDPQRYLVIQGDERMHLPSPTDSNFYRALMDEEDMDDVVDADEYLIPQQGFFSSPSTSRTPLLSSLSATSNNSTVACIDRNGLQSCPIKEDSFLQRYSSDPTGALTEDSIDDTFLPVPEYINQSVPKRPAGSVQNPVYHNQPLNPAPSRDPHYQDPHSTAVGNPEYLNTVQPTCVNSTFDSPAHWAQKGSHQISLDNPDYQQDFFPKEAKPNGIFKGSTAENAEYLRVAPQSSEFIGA

| pIC50 (EGFR L858R mutant) | pIC50 (CLK4) | pIC50 (CLK3) | pIC50 (EGFR Δ746-750 mutant) | pIC50 [1] | pIC50 (EGFR WT) | pIC50 [2] | pIC50 (EGFR (D770_N771insNPG)) | pIC50 (CLK2) | pIC50 (EGFR L858R/T790M mutant) | pIC50 (CLK1) | Compound |
| --- | --- | --- | --- | --- | --- | --- | --- | --- | --- | --- | --- |
| 8.29 | 8.88 | 6.41 | 8.06 | 8.50 | 7.63 | 8.35 | 7.40 | 8.87 | 8.77 | 9.12 | CC(C)Oc1nn(CCO)c2c1/C=C/c1n[nH]c3ccc(cc13)-c1cnn(C3CC3)c1O[C@@H](C)CN(C)C2 [Example 246, 2-{(10S,17E)-8-cyclopropyl-10,12-dimethyl-16-[(propan-2-yl)oxy]-2,8,10,11,12,13-hexahydro-14H-3,5-ethenotripyrazolo[3,4-f:3′,4′-j:4″,3″-n][1,4]oxazacyclopentadecin-14-yl}ethan-1-ol] |
| 7.45 | 9.26 | 6.97 | 7.62 | 7.87 | 6.91 | 8.05 | 7.33 | 9.64 | 8.47 | 9.42 | Cc1nn(C)c2c1/C=C/c1n[nH]c3ccc(cc13)-c1cnn(C)c1O[C@@H]1CCN(C2)C1 [Example 167, (10R,18E)-8,15,17-trimethyl-2,8,11,12,14,15-hexahydro-10H-3,5-etheno-10,13-methanotripyrazolo[3,4-g:3′,4′-k:4″,3″- 0][1,5]oxazacyclohexadecine] |
| 7.38 | 9.05 | 6.39 | 7.97 | 7.60 | 6.82 | 8.79 | 6.59 | 9.37 | 8.88 | 9.15 | Cc1c2c(nn1C)/C=C/c1n[nH]c3ccc(cc13)-c1cnn(C)c1O[C@@H](C)CN(C(C)C)C2 [Example 233, (10S,17E)-8,10,14,15-tetramethyl-12-(propan-2-yl)-2,10,11,12,13,15-hexahydro-8H-3,5-ethenotripyrazolo[4,3-f:3′,4′-j:4″,3″- n][1,4]oxazacyclopentadecine] |
| 8.25 | 8.62 | 7.36 | 8.04 | 8.38 | 7.70 | 8.58 | 6.99 | 8.36 | 8.37 | 8.62 | CCOc1nn(CCO)c2c1/C=C/c1n[nH]c3cc(F)c(cc13)-c1cnn(C)c1O[C@@H]1CCCN(C2)C1 [Example 191, 2-[(10R,19E)-18-ethoxy-22-fluoro-8-methyl-2,10,11,12,13,15-hexahydro-3,5-etheno-10,14-methanotripyrazolo[3,4-h:3′,4′-l:4″,3″-p][1,6]oxazacycloheptadecin-16(8H)-yl]ethan-1-o] |
| 9.92 | 8.80 | 6.82 | 9.96 | 9.64 | 9.64 | 9.11 | 9.19 | 9.85 | 9.77 | 9.14 | C[C@H]1CN(C)Cc2c(c(OCC#N)nn2CCO)/C=C/c2n[nH]c3ccc(cc23)-c2cnn(C)c2O1 [Example 203, {[(10S,17E)-14-(2-hydroxyethyl)-8,10,12-trimethyl-2,10,11,12,13,14-hexahydro-8H-3,5-ethenotripyrazolo[3,4-f:3′,4′-j:4″,3″- n][1,4]oxazacyclopentadecin-16-yl]oxy}acetonitrile] |
| 8.36 | 9.40 | 7.20 | 8.75 | 8.44 | 7.72 | 8.98 | 7.19 | 9.89 | 9.06 | 9.38 | CCOc1nn(C)c2c1/C=C/c1n[nH]c3ccc(cc13)-c1cnn(C)c1O[C@@H](C)CN(C(C)C)C2 [Example 156, (10S,17E)-16-ethoxy-8,10,14-trimethyl-12-(propan-2-yl)-2,10,11,12,13,14-hexahydro-8H-3,5-ethenotripyrazolo[3,4-f:3′,4′-j:4″,3″-n][1,4]oxazacyclopentadecine] |
| 8.82 | 9.35 | 6.77 | 8.89 | 9.10 | 7.94 | 9.12 | 8.00 | 10.00 | 9.48 | 9.77 | Cc1nn(C[C@H](C)O)c2c1/C=C/c1n[nH]c3ccc(cc13)-c1cnn(C)c1O[C@@H](C)CN(C)C2 [Example 123, (2S)-1-[(10S,17E)-8,10,12,16-tetramethyl-2,8,10,11,12,13-hexahydro-14H-3,5-ethenotripyrazolo[3,4f:3′,4′-j:4″,3″-n][1,4]oxazacyclopentadecin-14-yl]propan-2-ol] |
| 7.74 | 9.43 | 6.73 | 7.74 | 7.86 | 6.77 | 8.63 | 6.85 | 9.54 | 8.48 | 9.82 | Cc1c2c(nn1C[C@H](C)O)CN(C)C[C@H](C)Oc1c(cnn1C)-c1ccc3[nH]nc(c3c1)/C=C/2 [Example 124, (2S)-1-[(10S,17E)-8,10,12,16-tetramethyl-2,8,10,11,12,13-hexahydro-15H-3,5-ethenotripyrazolo[3,4-f:3′,4′-j:4″,3″-n][1,4]oxazacyclopentadecin-15-yl]propan-2-ol] |
| 8.73 | 9.11 | 6.62 | 8.22 | 8.86 | 7.78 | 8.57 | 7.86 | 9.48 | 9.14 | 9.41 | CCOc1nn(CCO)c2c1/C=C/c1n[nH]c3ccc(cc13)-c1cnn(CC)c1O[C@@H](C)CN(C)C2 [Example 168, 2-[(10S,17E)-16-ethoxy-8-ethyl-10,12-dimethyl-2,8,10,11,12,13-hexahydro-14H-3,5-ethenotripyrazolo[3,4-f:3′,4′-j:4″,3″-n][1,4]oxazacyclopentadecin-14-yl]ethan-1-ol] |
| 7.14 | 8.97 | 6.00 | 7.76 | 7.38 | 6.69 | 7.93 | 6.66 | 8.61 | 7.99 | 9.05 | CCOc1nn(C)c2c1/C=C/c1n[nH]c3ccc(cc13)-c1cnn(C)c1OC1CN(C2)C1 [Example 238, (17E)-16-ethoxy-8,14-dimethyl-2,8,10,11,13,14-hexahydro-3,5-etheno-10,12-methanotripyrazolo[3,4-f:3′,4′-j:4″,3″-n][1,4]oxazacyclopentadecine] |
| 7.40 | 7.65 | 6.36 | 7.73 | 8.06 | 7.00 | 8.44 | 6.81 | 7.27 | 8.21 | 7.44 | CC(C)Oc1nn(CCO)c2c1/C=C/c1n[nH]c3cc(F)c(cc13)-c1cnn(C)c1O[C@H](C)CN(C(C)C)C2 [Example 195, 2-{(10R,17E)-19-fluoro-8,10-dimethyl-12-(propan-2-yl)-16-[(propan-2-yl)oxy]-2,8,10,11,12,13-hexahydro-14H-3,5-ethenotripyrazolo[3,4-f:3′,4′-j:4″,3″- n][1,4]oxazacyclopentadecin-14-yl}ethan-1-ol] |
| 7.92 | 8.99 | 6.40 | 8.29 | 7.94 | 7.57 | 8.97 | 7.16 | 8.76 | 9.10 | 9.18 | CCOc1nn(C)c2c1/C=C/c1n[nH]c3ccc(cc13)-c1cnn(C)c1O[C@@H]1CCN(C2)C1 [Example 236, (10R,18E)-17-ethoxy-8,15-dimethyl-2,8,11,12,14,15-hexahydro-10H-3,5-etheno-10,13-methanotripyrazolo[3,4-g:3′,4′-k:4″,3″- o][1,5]oxazacyclohexadecine] |
